Patent US20030232101A1, “Topical formulations of resorcinols and cannibinoids and methods of use” (Immugen Pharmaceuticals, Inc., priority 2002, published 2003)
Read-outs that look alike come from different tables or passages of the source.

Tests used:
[1] = tested on: peripheral blood mononuclear cells (PBMCs); assay: PBMC cell viability in time of addition assay (MTS / Trypan Blue); type: cell-based, Human; details: read-out: TC50 (the source's name)
From the text: (§1) Human peripheral blood mononuclear cells (PBMCs) from a minimum of 2 donors, that have been blasted with PHA and IL-2, were counted, viability determined by Trypan Blue dye exclusion and mixed in equal ratios. Pooled donors were used to minimize the variability observed between individual donors which results from quantitative and qualitative differences in HIV infection and overall response to the PHA and IL-2 of primary lymphocyte populations. The cells were resuspended at 1×10^6 cells /mL in RPMI 1640 without phenol red supplemented with 15% Fetal Bovine Serum (heat inactivated), 2 mM L-glutamine, 100 U/mL penicillin, 100 μg/mL streptomycin, 10 μg/mL gentamycin and IL-2 (20 U/mL, R&D Systems, Minneapolis, Minn.). Fifty microliters of cells were then distributed to the inner 60 wells of a 96 well round bottom microtiter culture plate in a standard format developed by the Infectious Disease Research department of Southern Research Institute. Each plate contains cell control wells (cells only), virus control wells (cells plus virus), and experimental wells (drug plus cells plus virus). Alternatively, cells were cultured in T25 cm^2 or T75 cm^2 tissue culture flasks at a starting density of 1×10^6 cells per ml. Serially diluted compounds were added to the microtiter plate or tissue culture flask followed by the appropriate pre-titered strain of HIV-1. For virus replication inhibition experiments the HIV-1 strain RoJo was used. This is a low passage presumable subtype B pediatric isolate with a syncytium inducing (SI) phenotype in MT-2 cells isolated by Southern Research Institute personnel. All samples were assayed in triplicate where possible with an accompanying determination of compound toxicity. The final volume per well in the microtiter plates was 200 μL. The final volume in the tissue culture flask varied depending upon experimental design and flask size. Assays were incubated for 6 days in a humidified atmosphere at 37° C., 5% CO^2, after which supernatants were collected, for analysis of RT activity and cell viability by MTS dye reduction. Culture were also examined microscopically, any abnormalities noted, and in the case of tissue culture flasks cell counts and viability determined by Trypan Blue Dye exclusion.
(§2) Time of addition assays were performed with PBMCs in two ways. For both assays, PBMCs were isolated and cultured under the conditions as described above. Time of addition assays were carried out in either a tissue culture flask format (T-75 cm^2) or in microtiter wells. In both cases due to the lack of plastic adherence and heterogeneity of the PBMC population for susceptibility to infection, it was not possible to use complete removal of virus following a timed adsorption to synchronize the infection and limit the assay to a single round of infection. Therefore, serial washing by partial removal of the media was used to reduce the concentration of virus and compound (if required) in the assay. Compound addition in relationship to antiviral activity was either assessed over a short addition interval immediately before or after virus addition or for up to 72 h post infection. For all assays virus replication was assessed at 6 days of culture by determining RT expression in cell-free supernatants. In the tissue culture flask format cells were counted and Trypan Blue Dye exclusion used to monitor compound cytotoxicity. Cell viability in the 96 well microtiter plate format was determined by MTS dye reduction. AZT was used as a positive control.
(§3) At assay termination the assay plates were stained with the soluble tetrazolium-based dye MTS (CellTiter96® Reagent Promega) to determine cell viability and quantify compound toxicity. MTS is metabolized by the mitochondria enzymes of metabolically active cells to a soluble formazan product, allowing the rapid quantitative analysis cell viability and compound cytotoxicity. […] At termination of the assay 20 μL of MTS reagent was added per well and incubated for 4 h at 37° C. […]

[2] = as above; type: cell-based, Human; details: human, read-out: TC50
From the text: as §1, §2, §3

HIV-1 strain RoJo = assay: PBMC time of addition assay (RT activity in supernatant at 6 days); type: cell-based; details: for fold regain of potency (decrease in IC50): after the loss at 2 h; for IC50: Human immunodeficiency virus 1, PBMC
From the text: as §1, §2
Reverse transcriptase activity was measured in cell-free supernatants. Tritiated thymidine triphosphate (NEN) (TTP) was resuspended in distilled H2O at 5 Ci/mL. Poly rA and oligo dT were prepared as a stock solution which was kept at −20° C. The RT reaction buffer was prepared fresh on a daily basis and consists of 125 μL 1.0 M EGTA, 125 μL dH2O, 110 μL 10% SDS, 50 μL 1.0 M Tris (pH 7.4), 50 μL 1.0 M DTT, and 40 μL 1.0 M MgCl2. […]

IIIB strain of HIV-1 = assay: Virus attachment assay, HeLa CD4 LTR β-gal cells (Experimental Example 2); type: cell-based; details: Human immunodeficiency virus 1, IIIB, HeLa, read-out: Attachment Assay IC50
Procedure: This assay detects compounds that block virus attachment using HeLa CD4 LTR β-gal cells. HeLa CD4 LTR β-gal cells were cultured with selection antibiotics. Twenty-four h prior to initiation of the assay, the cells were trypsinized, counted and plated in a 0.2 cm well in media without selection antibiotics. At 24 h media is removed and compound in media placed on the cells and incubated for 15 min at 37° C. A known titer of the IIIB strain of HIV-1 was then added to the wells and the incubation continued for 1 to 2 h. At the end of the incubation the wells were washed 2 times with media and the culture continued for 40 to 48 h. At termination of the assay, media is removed and β-galactosidase enzyme expression determined by chemiluminescence per manufacturer's instructions (Tropix Gal-screen, Bedford Mass.). Compound toxicity is monitored on a sister plate by XTT or MTS dye reduction. All determinations are performed in triplicate with serial_Log10 dilution of the test materials.

[3] = addition prior to infection, pre-treatment 0 h
[4] = addition prior to infection, pre-treatment 2 h
[5] = addition prior to infection, pre-treatment 4 h
[6] = addition prior to infection, pre-treatment 24 h

Compound | CC50 ([1]; treatment 6 h post) | CC50 ([1]; treatment at infection) | CC50 at 6 days ([2]; treatment −4 h pre) | fold increase in IC50 (HIV-1 strain RoJo; 24 h pretreatment) | IC50 (HIV-1 strain RoJo; 4 h, treatment −4 h pre) | IC50 (HIV-1 strain RoJo; 6 h, treatment 6 h post) | IC50 (HIV-1 strain RoJo; [3]) | IC50 (HIV-1 strain RoJo; [4]) | IC50 (HIV-1 strain RoJo; [5]) | IC50 (HIV-1 strain RoJo; [6]) | IC50 (HIV-1 strain RoJo; treatment at infection) | IC50 (IIIB strain of HIV-1) | further results
C=C(C)[C@@H]1CCC(C)=C[C@H]1c1c(O)cc(CCCCC)cc1O [Cannabidiol, reference compound] | > 100 µM | > 100 µM | > 100 µM | fold at 4 h then a 17- |  |  |  |  |  |  |  |  | fold loss of activity (potency) (HIV-1 strain RoJo; 2 h pretreatment, listed as cannabidiol): approximately 10 fold; fold regain of potency (decrease in IC50) (HIV-1 strain RoJo; 4 h pretreatment): activity at 2 , regain 3.3-fold; fold regain of potency (decrease in IC50) (HIV-1 strain RoJo; 4 h pretreatment, listed as cannabidiol): 3.3 fold; fold increase in IC50 (HIV-1 strain RoJo; 24 h pretreatment, listed as cannabidiol): 17 fold; IC50 (HIV-1 strain RoJo; addition prior to infection, pre-treatment 0 h, read-out: IC50): 0.58 µM; IC50 (HIV-1 strain RoJo; addition prior to infection, pre-treatment 2 h, read-out: IC50): 5 µM; IC50 (HIV-1 strain RoJo; addition prior to infection, pre-treatment 4 h, read-out: IC50): 1.5 µM
COc1cc(C(C)(C)CCCC(C)C)cc(OC)c1OC [IMG507, 1-(1,1,5-Trimethylhexyl)-3,4,5-trimethoxybenzene] | > 100 µM |  |  | approximately 2 fold | 39.5 µM | 46.1 µM | 6.9 µM | 6.1 µM | 5.3 µM | 10.8 µM | 67 µM |  | CC50 ([1]; treatment −4 h pre): > 100 µM; CC50 at 6 days ([2]; treatment at infection): > 100 µM
CC(C)=CCCC1(C)CCc2c(O)cc(C(C)(C)CCCC(C)C)cc2O1 (stereo not drawn) [IMG508, 3,4-Dihydro-2-methyl-2-(4-methyl-3-pentenyl)-7-(1,1,5-trimethylhexyl)-2H-1-benzopyran-5-ol] | > 100 µM | > 100 µM | > 100 µM |  | 6.2 µM | 22.5 µM | 14.2 µM | 10.4 µM | 4.1 µM | 11.9 µM | 15.7 µM |  | fold decrease in IC50 (HIV-1 strain RoJo; 4 h pretreatment): 4-fold decrease in IC50
CC1=CCC2C(C1)c1c(O)cc(C(C)(C)CCCC(C)C)cc1OC2(C)C (stereo not drawn) [IMG509, 3-Norpentyl-3-(1,1,5-trimethylhexyl)-Δ8-tetrahydrocannabinol] | > 100 µM | > 100 µM | > 100 µM |  | 19.6 µM | 10 µM | 9.3 µM | 11 µM | 12.6 µM | 6.6 µM | 17.5 µM | 48.4 µM | fold decrease in IC50 (HIV-1 strain RoJo; 24 h pretreatment): approximately 2 fold
Cc1c(O)cc(C(C)(C)CCCC(C)C)cc1O [IMG510, 2-Methyl-5-(1,1,5-trimethylhexyl)resorcinol] | > 100 µM | > 100 µM | > 100 µM |  | 17.7 µM | 14.4 µM | 13.4 µM | 1.4 µM | 11.5 µM | 9.5 µM | 16.1 µM | 50.8 µM | fold decrease in IC50 (HIV-1 strain RoJo; 2 h pretreatment): 9.5-fold decrease in
Cc1ccc2c(c1)-c1c(O)cc(C(C)(C)CCCC(C)C)cc1OC2(C)C [IMG511, 3-Norpentyl-3-(1,1,5-trimethylhexyl)cannabinol] | > 100 µM | > 100 µM | > 100 µM | 5-fold increase in IC50 | 15.2 µM | 9.3 µM | 6.6 µM | 9.4 µM | 11.7 µM | 33.2 µM | 16.9 µM | 46.3 µM | 
